Data on one compound can be found in paper PMC5483439, “The Effect of Pungent and Tingling Compounds from Piper nigrum L. on Background K^+ Currents” (Frontiers in Pharmacology, 2017).

The target in the test is T1, mKCNK9 (Mus musculus, UniProt Q3LS21).
T1 construct: expressed in transfected cells; host or cells: Xenopus laevis oocytes injected with cRNA (subcloned into pSGEM; clone from Dr. D. Bayliss)
Nature of the test: Two-electrode voltage clamp on Xenopus oocytes expressing mKCNK9. The class given is cell-based. The conditions noted are these: 1–1000 μM. An excerpt: Human KCNK3 (TASK-1, K2P3.1) cloned into the expression vector pIRES-CD8 was a gift from Dr. Fabrice Duprat (Institut National de la Santé et de la Recherche Médicale, Antipolis, France). Human KCNK18 (hTRESK, K2P18.1), cloned into the plasmid pEXO, was a gift from Dr. P. Enyedi (Semmelweis University, Budapest, Hungary). These plasmids were linearized with the restriction enzymes BamHI and XbaI, respectively, and then used as templates for in vitro transcription. Human KCNK9 (hTASK-3, K2P9.1) cloned into the expression vector pCR4-TOPO, was purchased from Imagenes (Berlin, Germany). The plasmid was linearized with the restriction enzyme SspI, to generate a linear cDNA template for in vitro transcription. mKCNK3 was isolated from mouse heart by standard procedures and inserted into pSGEM. mKCNK9 and mKCNK18 were kindly provided by Dr. D. Bayliss (University of Virginia, Charlottesville, VA, United States) and Prof. Dr. P. Enyedi (Semmelweis University, Budapest, Hungary). Both channels were subcloned into pSGEM. The pSGEM plasmids were subsequently linearized with the restriction enzyme PacI. The capped RNAs were synthesized in the presence of the capping analog m7G(5′)ppp(5′)G using the AmpliCap-T7 Message Maker kit (Epicentre, Madison, WI, United States). The cRNA was dissolved in nuclease-free water to obtain a final concentration of 100 ng/μL. […]

T1 sequence (Q3LS21 whole entry): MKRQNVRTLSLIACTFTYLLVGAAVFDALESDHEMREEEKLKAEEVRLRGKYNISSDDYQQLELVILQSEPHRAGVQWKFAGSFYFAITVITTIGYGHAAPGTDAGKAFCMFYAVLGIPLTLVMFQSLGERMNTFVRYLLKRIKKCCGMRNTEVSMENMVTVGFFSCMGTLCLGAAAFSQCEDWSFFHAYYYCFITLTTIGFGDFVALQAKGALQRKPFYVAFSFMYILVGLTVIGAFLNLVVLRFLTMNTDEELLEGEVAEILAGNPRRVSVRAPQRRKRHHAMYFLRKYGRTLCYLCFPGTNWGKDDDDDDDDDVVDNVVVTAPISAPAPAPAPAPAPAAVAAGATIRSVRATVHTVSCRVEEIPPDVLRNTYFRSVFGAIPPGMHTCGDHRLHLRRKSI

By IC50 is commonly meant the concentration needed to halve the response being measured. Low values mean higher potency, high ones lower potency. Turning to `O=C(/C=C/C=C/c1ccc2c(c1)OCO2)N1CCCCC1` [1a, piperine], the half-maximal inhibitory concentration (IC50) was determined as 214 ± 60.1 µM.
